Data taken from patent publication US5185330A, “Penam derivatives and salts thereof, and antibacterial agent comprising the same” (Toyama Chemical Co., Ltd., priority 1989, dated 1993).
≈ marks a conversion by molar mass, not a printed value. Where a name gives a salt, the structure may show the parent alone. Read-outs that look alike come from different tables or passages of the source.

Key:
E. coli TK-3 = experiment: Antibacterial activity (MIC, agar dilution) against E. coli TK-3*; assay type: cell-based; conditions: Escherichia coli
Protocol: (§1) According to Chemotherapy, vol. 29, No. 1, pp. 76-79 (1981), bacterium was cultured in peptone broth manufactured by Eiken Kagaku K.K. at 37° C. for 20 hours to prepare a bacterial solution of 10^8 cells/ml, and one loopful of the bacterial solution was inoculated into Heart Infusion agar medium (manufactured by Eiken Kagaku K.K.) containing a drug, cultured at 37° C. for 20 hours, after which growth of bacterium was observed. The minimum concentration at which the growth of bacterium was prevented was indicated as MIC (μg/ml).
(§2) *means that β-lactamaseproducing bacteria.

S. marcescens W-8 = experiment: Antibacterial activity (MIC, agar dilution) against S. marcescens W-8*; assay type: cell-based; conditions: Serratia marcescens
Protocol: as §1, §2

[1] = TK3, E. coli TK-3* (β-lactamase-producing bacteria), Heart Infusion agar, 37° C., 20 hours, one loopful of 10^8 cells/ml, read-out: MIC
[2] = W8, S. marcescens W-8* (β-lactamase-producing bacteria), Heart Infusion agar, 37° C., 20 hours, one loopful of 10^8 cells/ml, read-out: MIC

MIC (E. coli TK-3; [1]) [µg/mL]	MIC (S. marcescens W-8; [2]) [µg/mL]	SMILES	MIC (E. coli TK-3; TK3, 20 h) [µg/mL]	MIC (S. marcescens W-8; W8, 20 h) [µg/mL]
0.1 (≈ 0.158 µM)	0.1 (≈ 0.158 µM)	O=C(O)C=CC=NN1CCN([C@]2(C(=O)O)CN3C(=O)[C@@H](NC(=O)C(c4cc(O)c(O)cc4Cl)S(=O)(=O)O)[C@H]3S2)C1=O (some centres unmarked) [compound 48]		
		C=CC=NN1CCN([C@]2(C(=O)O)CN3C(=O)[C@@H](NC(=O)C(c4cc(O)c(O)cc4Cl)S(=O)(=O)O)[C@H]3S2)C1=O (some centres unmarked) [compound 49]	≤ 0.05	≤ 0.05
> 200	> 200	CCN1CCN(C(=O)N[C@@H](C(=O)N[C@@H]2C(=O)N3C[C@@](C(=O)O)(N4CCN(C)C4=O)S[C@H]23)c2ccccc2)C(=O)C1=O [compound 51, Sodium salt of (3R,5R,6R)3-carboxy-6-[D-α-(4-ethyl-2,3-dioxo-1-piperazinecarboxamio)-α-phenylacetamido]-3-(3-methyl-2-oxoimidazolidin-1-yl)-7-oxo-4-tha-1-azabicyclo[3.2.0]heptane, reference compound]		

SMILES	MIC (E. coli TK-3; [1]) [µg/mL]	MIC (S. marcescens W-8; [2]) [µg/mL]	MIC (E. coli TK-3; TK3, 20 h) [µg/mL]	MIC (S. marcescens W-8; W8, 20 h) [µg/mL]
O=C(O)C(C(=O)N[C@@H]1C(=O)N2C[C@@](C(=O)O)(N3CCN(N=C4C=CCC4)C3=O)S[C@H]12)c1ccccc1 (some centres unmarked) [compound 50]		0.1 (≈ 0.195 µM)	0.39 (≈ 0.759 µM)	
